Biological target: recombinant mTOR (Homo sapiens (Human), UniProt P42345)
Assay: mTOR kinase assay (33P incorporation into 4EBP1)
Type: biochemical
Conditions: compound at 10 μM, 10 μM ATP
Description: The activity of the compound against mTOR was examined by measuring the incorporation of ^33P from [γ-^33P]-ATP into 4EBP1. His-tagged, recombinant human 4EBP1 was expressed in E. coli, purified by nickel-nitrilotriacetic acid (Ni-NTA) resins, and stored at −80° C. Phosphorylation of 4EBP1 by mTOR was assayed in the presence or absence of the compound and performed in a final volume of 25 μl reaction buffer containing 300 ng 4EBP1, 50 ng recombinant mTOR (Invitrogen), 50 mM HEPES (pH 7.5), 1 mM EGTA, 0.01% Polysorbate 20, 10 mM MnCl2, 2.5 mM DTT, 10 μM ATP, and 0.5 μCi [γ-33P]-ATP (PerkinElmir) for 30 min at 30° C. The reactions were terminated by adding 3% phosphoric acid. The ^33P labeled 4EBP1 was transferred onto UniFilter-96 GF/B plate (PerkinElmer) and quantified by Top Count Microplate Scintillation Counter (PerkinElmer). For primary screening of kinase activity inhibition, each test compound was evaluated at […] in duplicate. […] The IC50 values of the compounds were determined after carrying out assays at eight serially diluted concentrations of each compound in duplicate. The results were analyzed using linear regression software (GraphPad Prism 5; GraphPad Software Inc.).
IC50 value is defined as the concentration of the test compound which achieves a half-maximal inhibition of the kinase activity.

recombinant mTOR, sequence (P42345 1360-2549): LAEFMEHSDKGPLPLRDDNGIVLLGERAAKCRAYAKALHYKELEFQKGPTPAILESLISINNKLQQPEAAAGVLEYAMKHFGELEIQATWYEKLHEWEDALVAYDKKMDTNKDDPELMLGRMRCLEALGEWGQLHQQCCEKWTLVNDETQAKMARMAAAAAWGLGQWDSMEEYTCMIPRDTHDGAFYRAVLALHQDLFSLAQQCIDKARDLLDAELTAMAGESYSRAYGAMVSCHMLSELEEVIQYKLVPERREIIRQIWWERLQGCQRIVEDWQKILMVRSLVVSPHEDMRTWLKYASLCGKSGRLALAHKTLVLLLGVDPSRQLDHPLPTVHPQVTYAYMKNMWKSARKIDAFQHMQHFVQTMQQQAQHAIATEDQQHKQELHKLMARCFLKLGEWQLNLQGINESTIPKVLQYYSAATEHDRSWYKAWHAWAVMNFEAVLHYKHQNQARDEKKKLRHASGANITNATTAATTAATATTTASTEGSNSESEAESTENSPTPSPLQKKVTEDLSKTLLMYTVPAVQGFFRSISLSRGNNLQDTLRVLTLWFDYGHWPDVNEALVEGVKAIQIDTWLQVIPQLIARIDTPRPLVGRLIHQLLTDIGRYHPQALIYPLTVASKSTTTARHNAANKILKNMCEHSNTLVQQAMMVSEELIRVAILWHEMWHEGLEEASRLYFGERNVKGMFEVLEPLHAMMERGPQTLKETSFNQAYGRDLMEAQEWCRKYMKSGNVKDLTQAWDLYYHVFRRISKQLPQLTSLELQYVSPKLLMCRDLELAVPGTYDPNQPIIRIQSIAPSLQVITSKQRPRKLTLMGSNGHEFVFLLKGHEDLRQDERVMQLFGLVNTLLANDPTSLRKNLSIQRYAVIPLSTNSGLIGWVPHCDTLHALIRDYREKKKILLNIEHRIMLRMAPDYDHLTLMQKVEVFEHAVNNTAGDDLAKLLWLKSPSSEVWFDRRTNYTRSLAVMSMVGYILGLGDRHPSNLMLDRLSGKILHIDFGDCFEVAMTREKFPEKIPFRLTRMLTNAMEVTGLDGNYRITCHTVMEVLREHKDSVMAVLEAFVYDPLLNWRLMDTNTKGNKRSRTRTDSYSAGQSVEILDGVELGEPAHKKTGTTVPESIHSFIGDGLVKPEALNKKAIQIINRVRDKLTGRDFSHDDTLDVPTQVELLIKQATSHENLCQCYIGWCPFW

| SMILES | inhibition at 10 µM |
| --- | --- |
| CCOc1c(-c2ccncc2)nc(-c2ccc(NC(=O)Nc3cccnc3)cc2)nc1N1CCOCC1 [MTR-0493, 1-[4-(5-Ethoxy-4-morpholin-4-yl-6-pyridin-4-yl-pyrimidin-2-yl)-phenyl]-3-pyridin-3-yl-urea] | 99% |
| CSc1c(Cl)nc(-c2ccc(NC(=O)Nc3ccc(C(N)=O)cc3)cc2F)nc1N1CCOCC1 [MTR-0411, 4-{3-[4-(4-Chloro-5-methylsulfanyl-6-morpholin-4-yl-pyrimidin-2-yl)-3-fluoro-phenyl]-ureido}-benzamide] | 93% |
| CCOc1c(C(N)=O)nc(-c2ccc(NC(=O)Nc3ccccc3)cc2)nc1N1CCOCC1 [MTR-0125, 5-Ethoxy-6-morpholin-4-yl-2-[4-(3-phenyl-ureido)-phenyl]-pyrimidine-4-carboxylic acid amide] | 96% |
| COc1cnc(-c2ccc(NC(=S)Nc3ccc(N4CCOCC4=O)cc3)cc2)nc1N1CCOCC1 [MTR-0335, 1-[4-(5-Methoxy-4-morpholin-4-yl-pyrimidin-2-yl)-phenyl]-3-[4-(3-oxo-morpholin-4-yl)-phenyl]-thiourea] | 89% |
| CSc1c(Cl)nc(-c2ccc(NC(N)=O)c(F)c2)nc1N1CCOCC1 [MTR-0356, [4-(4-Chloro-5-methylsulfanyl-6-morpholin-4-yl-pyrimidin-2-yl)-2-fluoro-phenyl]-urea] | 82% |
| CSc1c(-c2ccncc2)nc(-c2ccc(NC(=S)Nc3ccccc3)cc2)nc1N1CCOCC1 [MTR-0468, 1-[4-(5-Methylsulfanyl-4-morpholin-4-yl-6-pyridin-4-yl-pyrimidin-2-yl)-phenyl]-3-phenyl-thiourea] | 97% |
| CSc1cnc(-c2ccc(NC(=O)NC(C)C)cc2)nc1N1CCOCC1 [MTR-0341, 1-Isopropyl-3-[4-(5-methylsulfanyl-4-morpholin-4-yl-pyrimidin-2-yl)-phenyl]-urea] | 83% |
| COc1cnc(-c2ccc(Nc3nc4ccccc4[nH]3)cc2)nc1N1CCOCC1 [MTR-0310, (1H-Benzoimidazol-2-yl)-[4-(5-methoxy-4-morpholin-4-yl-pyrimidin-2-yl)-phenyl]-amine] | 86% |
| CCOC(=O)c1nc(-c2ccc(NC(=O)Nc3ccc4c(c3)OCO4)cc2)nc(N2CCOCC2)c1OCC [MTR-0361, 2-[4-(3-Benzo[1,3]dioxol-5-yl-ureido)-phenyl]-5-ethoxy-6-morpholin-4-yl-pyrimidine-4-carboxylic acid ethyl ester] | 95% |
| CCOC(=O)c1nc(-c2ccc(NC(=O)Nc3ccc(N4CCOCC4)nc3)cc2)nc(N2CCOCC2)c1OCC [MTR-0276, 5-Ethoxy-6-morpholin-4-yl-2-{4-[3-(6-morpholin-4-yl-pyridin-3-yl)-ureido]-phenyl}-pyrimidine-4-carboxylic acid ethyl ester] | 82% |
| CSc1cnc(-c2ccc(NC(=O)Nc3ccc(N4CCN(C)CC4)cn3)cc2)nc1N1CCOCC1 [MTR-0318, 1-[5-(4-Methyl-piperazin-1-yl)-pyridin-2-yl]-3-[4-(5-methylsulfanyl-4-morpholin-4-yl-pyrimidin-2-yl)-phenyl]-urea] | 91% |
| CCOC(=O)c1nc(-c2cccc(O)c2)nc(N2CCOCC2)c1OC [MTR-0073, 2-(3-Hydroxy-phenyl)-5-methoxy-6-morpholin-4-yl-pyrimidine-4-carboxylic acid ethyl ester] | 86% |
| CSc1c(Cl)nc(-c2ccc(NC(=O)Nc3ccc(S(N)(=O)=O)cc3)c(F)c2)nc1N1CCOCC1 [MTR-0410, 4-{3-[4-(4-Chloro-5-methylsulfanyl-6-morpholin-4-yl-pyrimidin-2-yl)-2-fluoro-phenyl]-ureido}-benzenesulfonamide] | 85% |
| CCOC(=O)c1nc(-c2ccc(NC(=O)Nc3ccc4[nH]c(=O)oc4c3)cc2)nc(N2CCOCC2)c1OCC [MTR-0423, 5-Ethoxy-6-morpholin-4-yl-2-{4-[3-(2-oxo-2,3-dihydro-benzooxazol-6-yl)-ureido]-phenyl}-pyrimidine-4-carboxylic acid ethyl ester] | 95% |
| CSc1c(Cl)nc(-c2ccc(NC(=O)Nc3ccc(N)cc3)cc2)nc1N1CCOCC1 [MTR-0329, 1-(4-Amino-phenyl)-3-[4-(4-chloro-5-methylsulfanyl-6-morpholin-4-yl-pyrimidin-2-yl)-phenyl]-urea] | 97% |
| CSc1c(Cl)nc(-c2ccc(NC(=O)O)cc2)nc1N1CCOCC1 [MTR-0307, [4-(4-Chloro-5-methylsulfanyl-6-morpholin-4-yl-pyrimidin-2-yl)-phenyl]-carbamic acid] | 82% |
| CSc1cnc(-c2ccc(NC(=O)Nc3ccc(F)c(F)c3)cc2)nc1N1CCOCC1 [MTR-0177, 1-(3,4-Difluoro-phenyl)-3-[4-(5-methylsulfanyl-4-morpholin-4-yl-pyrimidin-2-yl)-phenyl]-urea] | 84% |

| SMILES | inhibition at 10 µM |
| --- | --- |
| CCOC(=O)c1nc(-c2ccc(NC(=O)Nc3ccc(C(N)=O)cc3)c(F)c2)nc(N2CCOCC2)c1OCC [MTR-0344, 2-{4-[3-(4-Carbamoyl-phenyl)-ureido]-3-fluoro-phenyl}-5-ethoxy-6-morpholin-4-yl-pyrimidine-4-carboxylic acid ethyl ester] | 92% |
| CSc1c(Cl)nc(-c2ccc(NC(=O)Nc3ccc(NC(C)=O)nc3)cc2)nc1N1CCOCC1 [MTR-0415, N-(5-{3-[4-(4-Chloro-5-methylsulfanyl-6-morpholin-4-yl-pyrimidin-2-yl)-phenyl]-ureido}-pyridin-2-yl)-acetamide] | 81% |
| COc1cnc(-c2ccc(NC(=O)Nc3ccc(N4CCN(C)CC4)cn3)cc2)nc1N1CCOCC1 [MTR-0334, 1-[4-(5-Methoxy-4-morpholin-4-yl-pyrimidin-2-yl)-phenyl]-3-[5-(4-methyl-piperazin-1-yl)-pyridin-2-yl]-urea] | 93% |
| CSc1c(Cl)nc(-c2ccc(NC(=O)Nc3ccc(N4CCOCC4)cn3)cc2)nc1N1CCOCC1 [MTR-0328, 1-[4-(4-Chloro-5-methylsulfanyl-6-morpholin-4-yl-pyrimidin-2-yl)-phenyl]-3-(5-morpholin-4-yl-pyridin-2-yl)-urea] | 85% |
| CSc1c(Cl)nc(-c2ccc(NC(=O)Nc3ccc(Cl)nc3)cc2)nc1N1CCOCC1 [MTR-0077, 1-[4-(4-Chloro-5-methylsulfanyl-6-morpholin-4-yl-pyrimidin-2-yl)-phenyl]-3-(6-chloro-pyridin-3-yl)-urea] | 87% |
| CCOC(=O)c1nc(-c2ccc3[nH]ccc3c2)nc(N2CCOCC2)c1OCC [MTR-0054, 5-Ethoxy-2-(1H-indol-5-yl)-6-morpholin-4-yl-pyrimidine-4-carboxylic acid ethyl ester] | 81% |
| CSc1cnc(-c2ccc(Nc3nc4ccccc4[nH]3)cc2)nc1N1CCOCC1 [MTR-0289, (1H-Benzoimidazol-2-yl)-[4-(5-methylsulfanyl-4-morpholin-4-yl-pyrimidin-2-yl)-phenyl]-amine] | 91% |
| COc1cnc(-c2ccc(NC(=O)Nc3ccc(OCCN(C)C)cc3)cc2)nc1N1CCOCC1 [MTR-0312, 1-[4-(2-Dimethylamino-ethoxy)-phenyl]-3-[4-(5-methoxy-4-morpholin-4-yl-pyrimidin-2-yl)-phenyl]-urea] | 94% |
| CSc1c(-c2ccncc2)nc(-c2ccc(N)cc2)nc1N1CCOCC1 [MTR-0360, 4-(5-Methylsulfanyl-4-morpholin-4-yl-6-pyridin-4-yl-pyrimidin-2-yl)-phenylamine] | 95% |
| CSc1c(Cl)nc(-c2ccc(Nc3nc4ccccc4[nH]3)cc2)nc1N1CCOCC1 [MTR-0305, (1H-Benzoimidazol-2-yl)-[4-(4-chloro-5-methylsulfanyl-6-morpholin-4-yl-pyrimidin-2-yl)-phenyl]-amine] | 82% |
| CSc1c(Cl)nc(-c2ccc(NC(=O)NCCN3CCOCC3)cc2)nc1N1CCOCC1 [MTR-0198, 1-[4-(4-Chloro-5-methylsulfanyl-6-morpholin-4-yl-pyrimidin-2-yl)-phenyl]-3-(2-morpholin-4-yl-ethyl)-urea] | 87% |
| CCOC(=O)c1nc(-c2ccc(NC(=O)Nc3ccc(Cl)nc3)cc2)nc(N2CCOCC2)c1OCC [MTR-0079, 2-{4-[3-(6-Chloro-pyridin-3-yl)-ureido]-phenyl}-5-ethoxy-6-morpholin-4-yl-pyrimidine-4-carboxylic acid ethyl ester] | 83% |
| CCOC(=O)c1nc(-c2ccc(NC(N)=O)cc2)nc(N2CCOCC2)c1OCC [MTR-0121, 5-Ethoxy-6-morpholin-4-yl-2-(4-ureido-phenyl)-pyrimidine-4-carboxylic acid ethyl ester] | 94% |
| CSc1cnc(-c2ccc(NC(=O)Nc3ccc4[nH]c(=O)oc4c3)cc2)nc1N1CCOCC1 [MTR-0459, 1-[4-(5-Methylsulfanyl-4-morpholin-4-yl-pyrimidin-2-yl)-phenyl]-3-(2-oxo-2,3-dihydro-benzooxazol-6-yl)-urea] | 88% |
| CCOC(=O)c1nc(-c2cccc(O)c2)nc(N2CCOCC2)c1OCC [MTR-0037, 5-Ethoxy-2-(3-hydroxy-phenyl)-6-morpholin-4-yl-pyrimidine-4-carboxylic acid ethyl ester] | 98% |
| CSc1c(Cl)nc(-c2cnc(N)nc2)nc1N1CCOCC1 [MTR-0373, 6-Chloro-5-methylsulfanyl-4-morpholin-4-yl-[2,5′]bipyrimidinyl-2′-ylamine] | 81% |

From patent US9315491B2 (DEVELOPMENT CENTER FOR BIOTECHNOLOGY, priority 2009, dated 2016)
